Measurements published in patent US20260294915A1, “COMBINATION THERAPY COMPRISING A MAT2A INHIBITOR AND A TOPOISOMERASE INHIBITOR, A SPLICING INHIBITOR SULFONAMIDE, OR A KIF18 INHIBITOR” (IDEAYA BIOSCIENCES, INC., priority 2023, published 2026).
pIC50: −log10 of the molar value.

Experiments:
Type in all cases: cell-based
[1] = system: NCI-H520; assay: 10-day proliferation (CTG), equimolar Compound A + Compound B (Example 1); details: Homo sapiens, NCI-H520, 240 h, 10 days, single agent or 1:1 combo; for IC30: read-out: gIC30; for IC40: read-out: gIC40; for pIC50: read-out: gIC50; for IC60: read-out: gIC60; for IC70: read-out: gIC70; for IC80: read-out: gIC80; for IC90: read-out: gIC90; for IC100: read-out: gIC100
Description: (§1) A 10-day proliferation assay was performed in a panel of 5 MTAP-deficient and 2 wild type non-small cell lung and bladder cancer cell lines. Optimal cell seeding for all cell lines was determined by assessing the growth over a range of seeding densities in a 384-well format to identify conditions that permitted proliferation for 10 days. Cells were then plated at the optimal seeding density and treated with 20-point, two-fold dilution series of Compound A, sovilnesib (“Compound B”), or an equimolar combination of Compound A and Compound B. Concentrations tested for Compound A and Compound B alone or in combination ranged from 0.038 nM to 20,000 nM. A plate of cells was harvested at the time of compound addition to quantify the number of cells at the start of the combination (T0). For cell quantification, the harvested cells were lysed with Promega CellTiter-Glo (CTG) reagent according to the manufacturer's protocol and the chemiluminescent signal was detected on a Synergy Neo plate reader. CTG estimates cell number through detection of cellular ATP levels. Cells were incubated with the drug combinations at 37° C. with 5% CO2 for 10 days. Cells were then lysed with CTG and the chemiluminescent signal was measured.
(§2) CTG values obtained after the 10-day treatment were background subtracted and expressed as a percent of the T0 value. Data were plotted against compound concentration and fit with a four-parameter equation to generate dose response curves for each single agent and the equimolar combination. Growth ICx (gICx) values ranging from gIC30 to gIC100 were interpolated from the fitted curves. Synergistic growth inhibition was assessed by determination of Combination Index (CI) values at these various points across the titration using the mutually non-exclusive equation [Chou, 1983; Chou, 1981] shown below where A equals the gIC value of Compound A, B equals the gICx value of Compound B, and A+B or B+A equals the gICx value of the equimolar combination. A Combination Index value less than 1.0 was considered synergistic.
(§3) Synergy was measured for equimolar combinations of Compound A and Compound B utilizing the mutually non-exclusive Combination Index equation across gICx values ranging from gIC30-gIC100. Combination Index values are shown for: NCI-H520 (4A) and TCCSUP (41B).

[2] = system: TCCSUP; assay: as above; details: Homo sapiens, TCC-SUP, 240 h, 10 days, single agent or 1:1 combo; for IC100: read-out: gIC100, heading: gIC100; for IC30: read-out: gIC30; for IC40: read-out: gIC40; for pIC50: read-out: gIC50; for IC60: read-out: gIC60; for IC70: read-out: gIC70; for IC80: read-out: gIC80; for IC90: read-out: gIC90
Description: as §1, §2, §3

[3] = system: UMUC5; assay: 10-day proliferation (CTG), Compound B titration + 1000 nM Compound A, Bliss (Example 2); design: key to GDI: GDI, -100 to 100; 0 = cell number at T0
Description: A 10-day proliferation assay was performed in a panel of 5 MTAP-deficient and 2 wild type non-small cell lung and bladder cancer cell lines. Optimal cell seeding for all cell lines was determined by assessing the growth over a range of seeding densities in a 384-well format to identify conditions that permitted proliferation for 10 days. Cells were then plated at the optimal seeding density and treated with 20-point, two-fold dilution series of Compound B in combination with a 1000 nM fixed concentration of Compound A. Single agent titrations for Compound A and Compound B were included for comparison. Concentrations tested for Compound A and Compound B alone or in combination ranged from 0.038 nM to 20,000 nM. A plate of cells was harvested at the time of compound addition to quantify the number of cells at the start of the combination (T0). For cell quantification, the harvested cells were lysed with Promega CellTiter-Glo (CTG) reagent according to the manufacturer's protocol and the chemiluminescent signal was detected as described in Example 1 above. Cells were incubated with the drug combinations at 37° C. with 5% CO2 for 10 days. Cells were then lysed with CTG and the chemiluminescent signal was measured.
CTG values obtained after the 10-day treatment were background subtracted and expressed as a percent of the T0 value set at 100%. Data were plotted against compound concentration and fit with a four-parameter equation to generate single agent dose response curves. Percent inhibition was determined for each combination and single agent concentration compared to a DMSO control. In addition, the overall net growth or death of the cells was calculated and reported as a growth death index (GDI) value on a scale of −100 to 100 with the midpoint (0) being the number of cells at the beginning of the combination (T0).
Predicted inhibition was calculated using (Ea+Eb)−(Ea*Eb) where E equals the effect (inhibition) of each single agent (a and b). A difference between the observed inhibition percentage and the predicted inhibition percentage greater than 10% was considered synergistic. A Bliss score was only calculated for combinations eliciting >20% growth inhibition (GDI value <80). Since Bliss is calculated based on growth inhibition, scores within cytotoxic dose ranges may not accurately reflect synergistic cytotoxicity.
Synergy was measured across the Compound B titration with 1000 nM Compound A by Bliss Independence analysis. Bliss scores >10 are indicated by “*” and are considered synergistic. […] Synergy as reported using Bliss may be underrepresented within cytotoxic dose ranges. Growth death index values are shown for the combination titration and each single agent Compound A (Cmpd A) and Compound B (Cmpd B) on a scale of −100 to 100 with the midpoint (0) being the number of cells at the beginning of the combination (T0).

With `Nc1nc(=O)n(-c2ccccc2Cl)c2nc(C(F)(F)F)ccc12` [Compound A] the IC30 [1] was 20 µM, the IC40 [1] was 20 µM and the pIC50 [1] was 4.70. The IC60 [1] was 20 µM, the IC70 [1] was 20 µM and the IC80 [1] was 20 µM. For the same compound, the IC90 [1] was 20 µM, the IC100 [1] was 20 µM and the IC100 [2] was greater than 20 µM. The IC30 [2] was 20 µM, the IC40 [2] was 20 µM and the pIC50 [2] was 4.70. It also gave an IC60 [2] of 20 µM, an IC70 [2] of 20 µM and an IC80 [2] of 20 µM. For the same compound, the IC90 [2] was 20 µM and the GDI ([3]; single agent, 1000 nM Cmpd A) was 59.
`Cc1cc(NC(=O)c2ccc(NS(=O)(=O)CCO)cc2N2CCC3(CC2)CC3)nc(N2CCC(F)(F)CC2)n1` [Compound B, N-(2-(4,4-difluoropiperidin-1-yl)-6-methylpyrimidin-4-yl)-4-((2-hydroxyethyl)sulfonamido)-2-(6-azaspiro[2.5]octan-6-yl)benzamide] was tested, and the IC30 [1] was 2.81 µM, the IC40 [1] was 4.16 µM and the pIC50 [1] was 5.24. It also gave an IC60 [1] of 7.73 µM, an IC70 [1] of 9.98 µM and an IC80 [1] of 12.5 µM. For the same compound, the IC90 [1] was 15.5 µM, the IC100 [1] was 18.7 µM and the IC100 [2] was greater than 20 µM. It also gave an IC30 [2] of 0.091 µM, an IC40 [2] of 0.107 µM and a pIC50 [2] of 6.90. The IC60 [2] was 0.15 µM, the IC70 [2] was 0.183 µM and the IC80 [2] was 0.24 µM. It also gave an IC90 [2] of 0.405 µM, a GDI ([3]; Cmpd B 0.04 nM, combo: + 1000 nM Cmpd A) of 97 and a GDI ([3]; Cmpd B 0.1 nM, combo: + 1000 nM Cmpd A) of 100. The GDI ([3]; Cmpd B 0.2 nM, combo: + 1000 nM Cmpd A) was 100, the GDI ([3]; Cmpd B 0.3 nM, combo: + 1000 nM Cmpd A) was 100 and the GDI ([3]; Cmpd B 0.6 nM, combo: + 1000 nM Cmpd A) was 100. It also gave a GDI ([3]; Cmpd B 1.2 nM, combo: + 1000 nM Cmpd A) of 96, a GDI ([3]; Cmpd B 2.4 nM, combo: + 1000 nM Cmpd A) of 100 and a GDI ([3]; Cmpd B 4.9 nM, combo: + 1000 nM Cmpd A) of 99. For the same compound, the GDI ([3]; Cmpd B 9.8 nM, combo: + 1000 nM Cmpd A) was 100, the GDI ([3]; Cmpd B 19.5 nM, combo: + 1000 nM Cmpd A) was 100 and the GDI ([3]; Cmpd B 39.1 nM, combo: + 1000 nM Cmpd A) was 100. For the same compound, the GDI ([3]; Cmpd B 78.1 nM, combo: + 1000 nM Cmpd A) was 100, the GDI ([3]; Cmpd B 156.3 nM, combo: + 1000 nM Cmpd A) was 75 and the GDI ([3]; Cmpd B 312.5 nM, combo: + 1000 nM Cmpd A) was 26. For the same compound, the GDI ([3]; Cmpd B 625 nM, combo: + 1000 nM Cmpd A) was 17, the GDI ([3]; Cmpd B 1250 nM, combo: + 1000 nM Cmpd A) was 16 and the GDI ([3]; Cmpd B 2500 nM, combo: + 1000 nM Cmpd A) was 15. The GDI ([3]; Cmpd B 5000 nM, combo: + 1000 nM Cmpd A) was 5, the GDI ([3]; Cmpd B 10000 nM, combo: + 1000 nM Cmpd A) was −87 and the GDI ([3]; Cmpd B 20000 nM, combo: + 1000 nM Cmpd A) was −91. The “single agent dose sufficient to maximally inhibit cell growth” value ([3]; single agent) was 5 µM.
